Reference: ChEMBL document CHEMBL1146769, “The discovery of N-(1,3-thiazol-2-yl)pyridin-2-amines as potent inhibitors of KDR kinase” (Bioorg Med Chem Lett, 2004)

Legend:
[1] = target: Vascular endothelial growth factor receptor 2 (Homo sapiens, UniProt P35968); experiment: Inhibitory activity towards vascular endothelial growth factor receptor 2
[2] = target: Vascular endothelial growth factor receptor 3 (Homo sapiens) (UniProt P35916); experiment: Selectivity for Vascular endothelial growth factor receptor 3 over (KDR) kinase insert domain receptor
Chain of Vascular endothelial growth factor receptor 3 (Homo sapiens) (P35916 whole entry, the tested form may be a part): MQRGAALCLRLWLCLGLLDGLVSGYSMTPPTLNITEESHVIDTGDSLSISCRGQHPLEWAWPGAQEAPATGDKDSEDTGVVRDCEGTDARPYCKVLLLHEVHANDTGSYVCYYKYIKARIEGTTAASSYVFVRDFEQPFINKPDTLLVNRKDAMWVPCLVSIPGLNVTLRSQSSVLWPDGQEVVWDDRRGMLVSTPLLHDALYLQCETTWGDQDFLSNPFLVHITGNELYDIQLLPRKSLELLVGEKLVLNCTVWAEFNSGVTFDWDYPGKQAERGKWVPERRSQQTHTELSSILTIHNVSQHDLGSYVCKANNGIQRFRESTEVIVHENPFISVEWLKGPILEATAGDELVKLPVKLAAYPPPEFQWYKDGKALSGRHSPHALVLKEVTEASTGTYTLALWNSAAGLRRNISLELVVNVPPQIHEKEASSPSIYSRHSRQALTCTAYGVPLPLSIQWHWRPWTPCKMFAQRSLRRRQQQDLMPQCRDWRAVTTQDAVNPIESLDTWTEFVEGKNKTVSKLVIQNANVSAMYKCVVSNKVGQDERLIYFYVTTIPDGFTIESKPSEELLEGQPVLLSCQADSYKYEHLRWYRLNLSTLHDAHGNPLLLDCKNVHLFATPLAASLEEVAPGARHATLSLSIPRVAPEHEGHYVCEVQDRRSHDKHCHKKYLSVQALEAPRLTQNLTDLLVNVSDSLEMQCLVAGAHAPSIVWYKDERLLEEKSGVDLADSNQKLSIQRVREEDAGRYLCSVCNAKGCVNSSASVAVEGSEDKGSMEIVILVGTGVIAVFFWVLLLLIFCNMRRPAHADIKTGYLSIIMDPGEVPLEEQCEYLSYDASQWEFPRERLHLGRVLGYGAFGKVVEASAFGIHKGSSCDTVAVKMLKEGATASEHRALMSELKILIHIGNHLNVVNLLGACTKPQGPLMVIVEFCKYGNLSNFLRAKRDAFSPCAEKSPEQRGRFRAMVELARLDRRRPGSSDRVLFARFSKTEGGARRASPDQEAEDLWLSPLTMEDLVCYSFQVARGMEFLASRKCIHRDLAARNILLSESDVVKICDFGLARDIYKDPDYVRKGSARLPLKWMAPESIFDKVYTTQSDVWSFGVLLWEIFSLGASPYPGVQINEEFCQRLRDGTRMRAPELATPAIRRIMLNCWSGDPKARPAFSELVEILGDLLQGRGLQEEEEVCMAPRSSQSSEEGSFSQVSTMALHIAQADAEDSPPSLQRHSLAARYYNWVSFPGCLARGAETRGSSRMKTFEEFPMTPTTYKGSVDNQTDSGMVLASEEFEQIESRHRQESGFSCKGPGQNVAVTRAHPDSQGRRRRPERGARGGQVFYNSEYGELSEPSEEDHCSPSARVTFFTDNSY

[3] = target: Vascular endothelial growth factor receptor 1 (Homo sapiens) (UniProt P17948); experiment: Selectivity for Vascular endothelial growth factor receptor 1 over (KDR) kinase insert domain receptor
[4] = target: Fibroblast growth factor receptor 1 (Homo sapiens) (UniProt P11362); experiment: Selectivity for Fibroblast growth factor receptor 1 over (KDR) kinase insert domain receptor
[5] = target: Fibroblast growth factor receptor 2 (Homo sapiens) (UniProt P21802); experiment: Selectivity for Fibroblast growth factor receptor 2 over (KDR) kinase insert domain receptor
[6] = target: Proto-oncogene tyrosine-protein kinase Src (Homo sapiens) (UniProt P12931); experiment: Selectivity for Src protein tyrosine kinase over (KDR) kinase insert domain receptor
Chain of Proto-oncogene tyrosine-protein kinase Src (Homo sapiens) (P12931 2-536 limits assumed): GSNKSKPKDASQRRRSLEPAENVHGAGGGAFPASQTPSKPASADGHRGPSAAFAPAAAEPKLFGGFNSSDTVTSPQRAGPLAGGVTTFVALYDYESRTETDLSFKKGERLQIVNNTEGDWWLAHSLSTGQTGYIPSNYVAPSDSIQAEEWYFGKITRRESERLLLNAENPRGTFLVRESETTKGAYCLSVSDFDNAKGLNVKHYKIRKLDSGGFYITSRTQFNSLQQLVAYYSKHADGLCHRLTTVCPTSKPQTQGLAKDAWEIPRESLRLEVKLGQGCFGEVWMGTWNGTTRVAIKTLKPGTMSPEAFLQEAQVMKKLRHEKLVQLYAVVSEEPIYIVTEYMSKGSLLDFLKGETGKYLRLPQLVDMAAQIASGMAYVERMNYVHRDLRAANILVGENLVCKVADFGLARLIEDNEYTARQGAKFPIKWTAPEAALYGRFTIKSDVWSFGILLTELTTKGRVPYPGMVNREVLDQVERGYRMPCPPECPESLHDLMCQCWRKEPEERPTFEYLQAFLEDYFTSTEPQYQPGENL

[7] = target: Platelet-derived growth factor receptor beta (Homo sapiens) (UniProt P09619); experiment: Selectivity for PDGFRbeta over (KDR) kinase insert domain receptor
Chain of Platelet-derived growth factor receptor beta (Homo sapiens) (P09619 whole entry, the tested form may be a part): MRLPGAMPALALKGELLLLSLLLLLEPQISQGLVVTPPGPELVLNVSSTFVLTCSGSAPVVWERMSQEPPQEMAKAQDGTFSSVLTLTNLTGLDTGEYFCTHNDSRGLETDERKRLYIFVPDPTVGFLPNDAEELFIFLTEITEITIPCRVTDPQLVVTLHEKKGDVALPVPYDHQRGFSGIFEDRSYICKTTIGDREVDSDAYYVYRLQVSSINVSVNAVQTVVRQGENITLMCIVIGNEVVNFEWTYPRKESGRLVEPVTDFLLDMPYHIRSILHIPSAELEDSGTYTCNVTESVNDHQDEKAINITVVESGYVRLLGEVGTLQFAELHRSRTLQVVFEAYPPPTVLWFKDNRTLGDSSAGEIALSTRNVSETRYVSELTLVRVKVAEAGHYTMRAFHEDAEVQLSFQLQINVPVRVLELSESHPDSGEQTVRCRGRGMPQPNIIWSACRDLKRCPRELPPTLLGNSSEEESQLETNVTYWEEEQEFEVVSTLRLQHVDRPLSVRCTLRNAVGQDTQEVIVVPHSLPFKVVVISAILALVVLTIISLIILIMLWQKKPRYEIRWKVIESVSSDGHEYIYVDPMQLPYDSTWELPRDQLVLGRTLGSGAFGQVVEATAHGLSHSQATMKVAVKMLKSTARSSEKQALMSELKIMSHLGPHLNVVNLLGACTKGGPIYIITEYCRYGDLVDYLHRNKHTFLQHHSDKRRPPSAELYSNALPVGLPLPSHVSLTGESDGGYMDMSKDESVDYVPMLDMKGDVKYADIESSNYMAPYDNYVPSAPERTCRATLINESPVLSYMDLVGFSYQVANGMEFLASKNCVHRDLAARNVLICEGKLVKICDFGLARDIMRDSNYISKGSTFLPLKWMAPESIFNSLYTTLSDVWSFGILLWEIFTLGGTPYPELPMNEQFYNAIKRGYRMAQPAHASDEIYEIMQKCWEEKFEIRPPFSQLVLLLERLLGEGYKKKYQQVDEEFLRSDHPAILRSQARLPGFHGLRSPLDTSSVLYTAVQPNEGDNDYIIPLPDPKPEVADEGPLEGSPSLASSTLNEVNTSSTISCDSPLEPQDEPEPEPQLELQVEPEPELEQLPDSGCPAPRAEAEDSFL

Chain of Vascular endothelial growth factor receptor 2 (P35968 whole entry, the tested form may be a part): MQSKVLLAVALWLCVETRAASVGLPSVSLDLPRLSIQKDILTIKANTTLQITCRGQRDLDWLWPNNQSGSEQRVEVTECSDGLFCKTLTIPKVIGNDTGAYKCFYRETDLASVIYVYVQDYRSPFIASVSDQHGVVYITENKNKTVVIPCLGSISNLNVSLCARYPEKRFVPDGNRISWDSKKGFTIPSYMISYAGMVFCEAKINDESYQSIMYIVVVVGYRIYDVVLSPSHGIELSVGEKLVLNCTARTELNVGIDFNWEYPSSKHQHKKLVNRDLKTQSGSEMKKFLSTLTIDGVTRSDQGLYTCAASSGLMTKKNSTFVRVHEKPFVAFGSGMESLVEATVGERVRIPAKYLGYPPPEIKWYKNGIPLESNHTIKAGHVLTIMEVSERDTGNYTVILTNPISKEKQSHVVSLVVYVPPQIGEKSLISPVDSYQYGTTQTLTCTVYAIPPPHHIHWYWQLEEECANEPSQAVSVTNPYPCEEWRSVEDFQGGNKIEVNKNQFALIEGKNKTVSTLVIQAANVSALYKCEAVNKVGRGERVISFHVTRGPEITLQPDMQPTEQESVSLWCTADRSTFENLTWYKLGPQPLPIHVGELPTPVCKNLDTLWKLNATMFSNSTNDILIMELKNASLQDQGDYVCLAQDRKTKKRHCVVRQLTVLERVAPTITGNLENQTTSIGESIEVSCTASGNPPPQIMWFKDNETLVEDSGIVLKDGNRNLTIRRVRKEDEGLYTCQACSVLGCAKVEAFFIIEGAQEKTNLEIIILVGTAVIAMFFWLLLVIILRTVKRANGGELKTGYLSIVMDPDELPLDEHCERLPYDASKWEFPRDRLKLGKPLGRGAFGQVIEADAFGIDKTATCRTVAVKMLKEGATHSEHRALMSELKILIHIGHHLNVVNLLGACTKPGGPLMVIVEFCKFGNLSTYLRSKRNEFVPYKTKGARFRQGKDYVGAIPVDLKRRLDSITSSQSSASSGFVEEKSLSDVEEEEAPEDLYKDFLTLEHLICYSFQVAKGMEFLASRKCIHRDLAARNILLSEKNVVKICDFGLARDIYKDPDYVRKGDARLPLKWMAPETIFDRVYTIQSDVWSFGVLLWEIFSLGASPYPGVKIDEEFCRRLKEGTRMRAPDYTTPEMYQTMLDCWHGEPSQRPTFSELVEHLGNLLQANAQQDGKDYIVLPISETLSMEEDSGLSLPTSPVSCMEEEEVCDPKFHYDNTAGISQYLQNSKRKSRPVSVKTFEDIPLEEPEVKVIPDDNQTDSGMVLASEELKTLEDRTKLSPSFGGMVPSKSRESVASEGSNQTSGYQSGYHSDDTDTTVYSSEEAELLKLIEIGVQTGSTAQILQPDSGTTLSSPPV

IC50 [1] | Selectivity [2] | Selectivity [3] | Selectivity [4] | Selectivity [5] | Selectivity [6] | Selectivity [7] | SMILES
259 nM |  |  |  |  |  |  | c1ccc(-c2cnc(Nc3ccncc3)s2)cc1
36 nM | 4 | 30 | 214 | 107 | 678 | 68 | N#Cc1cnc(Nc2ccccn2)s1
 | 1 | > 130 | > 130 | > 130 | > 130 |  | CCCCN(C)c1ccc(/N=N/c2ncc([N+](=O)[O-])s2)c(C)c1
35 nM | 1 | 6 | > 580 | > 580 | > 580 | 0.1 | Clc1ccc(Nc2ncc(-c3ccccc3)s2)nc1
46 nM |  |  |  |  |  |  | COc1cccnc1Nc1ncc(-c2ccccc2)s1
1880 nM |  |  |  |  |  |  | c1ccc(-c2cnc(Nc3ccccn3)o2)cc1
194 nM |  |  |  |  |  |  | Clc1cnc(Nc2ccccn2)s1
71 nM |  |  |  |  |  |  | Brc1cnc(Nc2ccccn2)s1
1270 nM |  |  |  |  |  |  | Cc1cnc(Nc2ccccn2)s1
10 nM | 3 | 8 | 600 | 210 | 760 | 0.3 | Cc1cccc(Nc2ncc(-c3ccccc3)s2)n1
124 nM |  |  |  |  |  |  | c1ccc(Nc2ncc(-c3ccccc3)s2)cc1
13 nM | 3 | 16 | 820 | 200 | 1200 | 1 | Cc1cccnc1Nc1ncc(-c2ccccc2)s1
 | 1 | 4 | 72 | 14 | > 240 |  | O=C(Nc1ncc(-c2ccccc2)s1)c1ccccc1
19 nM | 1 | 5 | 220 | 70 | 570 | 0.3 | Cc1ccc(Nc2ncc(-c3ccccc3)s2)nc1
11 nM |  |  |  |  |  |  | COc1ccnc(Nc2ncc(-c3ccccc3)s2)c1
14 nM | 3 | 12 | 1620 | 400 | 840 | 0.3 | Brc1cccc(Nc2ncc(-c3ccccc3)s2)n1
6 nM | 2 | 7 | 220 | 50 | 190 | 0.5 | Cc1ccnc(Nc2ncc(-c3ccccc3)s2)c1
3 nM |  |  |  |  |  |  | COc1cccc(Nc2ncc(-c3ccccc3)s2)n1
